In patent US6984656B2, “Core modified porphyrins” (priority 2001, dated 2006):

Assays:
[1] = Tissue distribution by fluorescence in tumor-bearing BALB/c mice; conditions: mouse, in vivo
Description: At various times after sensitizer administration, animals were sacrificed and sensitizer levels determined by direct extraction. In tumor-bearing animals (BALB/c mice or female Fischer rats), the concentration of sensitizer was determined by fluorescence spectroscopy where possible. At various time points post-injection of 5 μmol/kg of sensitizer or 90% of the LD10 (whichever is smaller), tissues were removed, weighed, homogenized, and frozen in liquid nitrogen (3-5 animals per time point). The homogenate, after thawing, was taken up in Solvable and the emission from sensitizer was quantified in terms of ng of sensitizer/mg of protein. With non-fluorescent sensitizers, sensitizer content was quantified spectrophotometrically. Distribution ratios were expressed as the uptake or retention of sensitizer in tumor relative to various normal tissues. Intensified digital fluorescence microscopy and/or confocal microscopy on frozen sections of the tumors, which were prepared from samples specified for this purpose, enabled us to assess intratumor sensitizer distributions.

BALB/c mice = conditions: mouse, in vivo, 10 mg/kg
[2] = 5 mg (5 μmole)/kg of 6; BALB/c mice bearing Colo-26 tumors; cited from earlier work
[3] = Rate of photobleaching in phosphate-buffered saline; format: physicochemical; conditions: PBS; 570-750 nm light at 500 mW cm^−2; constant initial absorbance
From the text: One limitation of PDT dosimetry is the rate of photobleaching of the photosensitizer, which can be problematic with Photofrin® and even more problematic with the bacteriochlorins and the chlorins (such as HPPH).

Colo-26 cells = experiment: Dark and light-induced toxicity toward Colo-26 cells in culture; format: cell-based, murine
Description: In order to compare relative phototoxicity, the core-modified porphyrins of Table 1 were evaluated in culture for dark and light-induced toxicities toward Colo-26 cells, a murine colon carcinoma cell line.

Colo-26 tumors = experiment: PDT against implanted Colo-26 tumors in BALB/c mice; format: in vivo; conditions: 6 at 3.25 mg (3.0 μmol)/kg and 694-nm light
Description: Core-modified porphyrin 6 gave a PDT response in vivo with 694-nm light in BALB/c mice bearing Colo-26 tumors. Animals treated with photosensitizer 6 at 3.25 mg (3.0 μmol)/kg and light required 10.3±0.8 d to reach 400-mm^3 tumor volume, which was more than double the time for control animals (4.3±1.0 d) receiving neither drug nor light (P <0.01).
The animals were irradiated 4 h post-injection with 135 J cm^−2 of 694-nm red light from a dye laser (75 mW cm^−2 for 30 min). […] For comparison purposes, BALB/C mice bearing Colo-26 tumors were given 2.5 mg (4.0 μmol)/kg of Photofrin® as a 5% aqueous dextrose solution and were irradiated 24 h later with 135 J cm^−2 of 630-nm laser light at a power of 75 mW cm^−2 for PDT with Photofrin®.
Animals initially were given i.v. (tail vein) injections of sensitizer at various concentrations (0.05to 5.0 μmol/kg). Mice were restrained at various times thereafter without anesthesia in specially designed holders. Fischer 344 female rats were chemically restrained at various times thereafter. In both models, tumors or normal back skin were exposed to light from a xenon arc lamp with appropriate filters or to a dye laser tuned to the absorption maximum determined by in vivo reflectance measurements. Power density of delivered light typically fell in the range of 10-200 mW cm^−2 evenly distributed to a spot size of roughly 1.5 cm and measured by a radiometer. Several dose rates were explored to examine role/limitation of available oxygen on the photodynamic process. Intratumor temperatures were measured with an Omega HYP-O microthermocouple and, when necessary, a stream of nitrogen gas was used to keep intratumor temperatures below 37° C. Animals were examined and measured daily for the first 14 days post treatment and every other day thereafter until the tumors reached 400 mm^3 in mice or until the tumors double in size for Fischer 344 female rats or for 90 days. Tumor size were measured in two dimensions with a caliper. Time to 400 mm^3 or volume doubling times of tumors from control and PDT-treated groups (8-12 animals per group) were compared statistically using the SAS statistical program (SAS, Inc., Cary, N.C.). A P-value of <0.05 is considered significant. The degree of damage to the normal skin within the irradiation field also were noted. Disappearance of tumor with minimal damage to normal skin is the most desirable response. Animals are considered cured if no tumor regrowth occurs by 90 days. In all studies, three control groups were utilized in addition to the treatment group receiving both sensitizer and light: 1) a complete control receiving neither drug nor light, 2) a group receiving sensitizer only, and 3) a group receiving light only. Representative animals from each of the treatment groups were processed for histology immediately, one day, or two weeks after irradiation. Step sections through the tumor were used to define the boundaries of tumor cell damage and death as a function of distance from the skin surface.

[4] = Clearance from the serum by fluorescence; format: in vivo, mice; conditions: fluorescence measurements, post-injection
Description: BALB/c mice were treated with 5 mg/kg of photosensitizer 6 and the ear-swelling response (ESR) was determined at selected time-points.

5,10,15,20-tetrakis(4-sulfonatophenyl)-21,23-dithiaporphyrin [Compound 6]
tumor selectivity of uptake by fluorescence [1]: preferentially taken up by tumor | toxicity and morbidity (BALB/c mice): no toxicity, morbidity, or side effects were observed | concentration in tumor 24 h post-injection [2]: 0.019±0.007 μg/g of protein | rate of photobleaching (kbleach) [3]: 0.84 ± 0.02 × 10^4 s^−1 | EC50 (Colo-26 cells; 24 h incubation in dark, 4 J cm^−2 of 590-800 nm light, survival 24 h later, read-out: effective concentration to give 50% cell-kill of Colo-26 cells in vitro (EC50)): 30 µM | dark toxicity toward Colo-26 cells (Colo-26 cells; dark, concentrations ≦100 μg/mL (≦100 μM)): negligible dark toxicity | time to reach 400-mm^3 tumor volume (Colo-26 tumors): 10.3 ± 0.8 days | time to clearance from the serum [4]: 7 days
